Measured values published in PMC8818328 (European journal of medicinal chemistry, 2021).
Blank lines part the entries; values can stand above or below the molecule they belong to.

Experiments:
HCT116 = experiment: MTT proliferation assay, HCT116; assay type: cell-based; conditions: Homo sapiens, HCT-116, 24 h, read-out: Growth inhibition (%) HCT116
[1] = tested on: renal cancer cell lines A-498 and Caki-1; experiment: MTT assay, renal cancer cell lines; assay type: cell-based; conditions: for IC50: read-out: IC50 against the tested renal cancer cell lines; for GI% renal cancer cell lines A-498 and Caki-1: 10 μM, range over both cell lines
K562 = experiment: MTT proliferation assay, K562; assay type: cell-based; conditions: Homo sapiens, K562, 24 h, read-out: Growth inhibition (%) K562
A-498 cells [2] = experiment: Resistance development assay; conditions: Homo sapiens, A498, read-out: IC50 on pretreated A-498 cells
[3] = tested on: HDAC2, p-FAK, p-Akt in A-498 cells; experiment: Resistance development assay, Western blot of HDAC2, p-FAK, FAK, p-Akt, Akt
[4] = tested on: HCT116, HT-29, K562, KG-1, A-498 and Caki-1 cell lines; experiment: MTT assay, all six tested cell lines; assay type: cell-based; conditions: 10 μM, range over six cell lines
[5] = tested on: HDAC2 and FAK in Caki-1 cells; experiment: Western blot of HDAC2 expression and FAK phosphorylation, Caki-1 cells; assay type: cell-based; conditions: 24 h at IC50, Western blot
caspase-3 = experiment: Active caspase-3 ELISA in A-498 cells; assay type: cell-based, human; conditions: control 45.57
A-498 cells [6] = experiment: Cell cycle analysis by flow cytometry, A-498; assay type: cell-based; conditions: 24 h
caspase-9 = experiment: Caspase-9 ELISA in A-498 cells; assay type: cell-based, human; conditions: 24 h, control 4.53
Caki-1 cells = experiment: Cell cycle analysis by flow cytometry, Caki-1; assay type: cell-based; conditions: 24 h
[7] = tested on: HDAC2 and FAK in A-498 cells; experiment: Western blot of HDAC2 expression and FAK phosphorylation, A-498 cells; assay type: cell-based; conditions: 24 h at IC50, Western blot
caspase-8 = experiment: Caspase-8 ELISA in A-498 cells; assay type: cell-based, human; conditions: 24 h, control 0.274
STAT3 in A-498 cells = experiment: Western blot of STAT3 activation; assay type: cell-based
HDAC1 = HDAC1 (Homo sapiens, UniProt Q13547); experiment: Fluorogenic enzymatic assay HDAC1; assay type: biochemical
[8] = A-498 cells pretreated 12 weeks
[9] = A-498 cells, both pretreated (12 weeks) and not pretreated

HDAC1, sequence (Q13547 whole entry): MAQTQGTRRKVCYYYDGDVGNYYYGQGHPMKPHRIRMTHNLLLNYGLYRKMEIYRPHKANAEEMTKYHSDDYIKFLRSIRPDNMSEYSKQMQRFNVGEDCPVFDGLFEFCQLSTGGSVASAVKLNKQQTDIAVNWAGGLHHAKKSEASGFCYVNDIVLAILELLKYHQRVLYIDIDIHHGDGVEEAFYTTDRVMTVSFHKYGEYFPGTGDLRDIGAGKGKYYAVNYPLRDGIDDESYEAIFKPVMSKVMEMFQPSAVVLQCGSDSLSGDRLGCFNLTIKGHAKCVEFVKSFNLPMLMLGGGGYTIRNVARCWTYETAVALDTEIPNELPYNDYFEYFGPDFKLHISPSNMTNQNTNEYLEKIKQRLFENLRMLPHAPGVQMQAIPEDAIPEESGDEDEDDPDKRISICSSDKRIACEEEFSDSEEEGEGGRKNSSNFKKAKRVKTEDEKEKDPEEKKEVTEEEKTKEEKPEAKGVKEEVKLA

Structure (SMILES): Cn1c(SCc2ccc(C(=O)NO)cc2)nnc1-c1ccncc1 [Compound 10a, N-hydroxy-4-(((4-methyl-5-(pyridin-4-yl)-4H-1,2,4-triazol-3-yl)thio)methyl)benzamide]
inhibition at 10 µM (HCT116): 32.4% | IC50 [1]: 6.19 to 20.9 µM

Structure (SMILES): Nc1ccccc1NC(=O)CCCCCSc1nnc(-c2ccncc2)n1-c1ccccc1 [Compound 7d, N-(2-aminophenyl)-6-((4-phenyl-5-(pyridin-4-yl)-4H-1,2,4-triazol-3-yl)thio)hexanamide]
inhibition at 10 µM (K562): 15.1%

Structure (SMILES): O=C(NO)c1ccc(CSc2nnc(-c3ccncc3)n2-c2ccccc2)cc1 [Compound 10d, N-hydroxy-4-(((4-phenyl-5-(pyridin-4-yl)-4H-1,2,4-triazol-3-yl)thio)methyl)benzamide]
IC50 [1]: 6.19 to 20.9 µM

Structure (SMILES): Cn1c(SCCCCCC(=O)NO)nnc1-c1ccncc1 [Compound 6a, N-hydroxy-6-((4-methyl-5-(pyridin-4-yl)-4H-1,2,4-triazol-3-yl)thio)hexanamide]
GI% against all the tested cells [4]: 40.12–99.81% | FAK phosphorylation [5]: decreased | expression level of HDAC2 [5]: decreased | Caspase-3 concentration (caspase-3): 515.40 pg/mL | percentage of cells in G1 phase (A-498 cells [6]; 1.5 μM): decreased | percentage of cells in S phase (A-498 cells [6]; 1.5 μM): minor changes | percentage of cells in G2/M phase (A-498 cells [6]; control 18%): 65% | Caspase-9 Concentration (caspase-9): 28.47 ng/mL | GI% renal cancer cell lines A-498 and Caki-1 [1]: 89.34–99.81% | IC50 [1]: 0.95 to 2.35 µM | percentage of cells in G1 phase (Caki-1 cells; 1.5 μM): decreased | percentage of cells in S phase (Caki-1 cells; 1.5 μM): minor changes | percentage of cells in G2/M phase (Caki-1 cells; control 5.5%): 35% | Akt phosphorylation [3, 9]: substantial ability to inhibit | FAK phosphorylation [3, 9]: steady ability to inhibit | HDAC2 expression [3, 9]: steady ability to inhibit | FAK phosphorylation [7]: decreased | expression level of HDAC2 [7]: decreased | Caspase-8 Concentration (caspase-8): 0.888 ng/mL | STAT3 activation (STAT3 in A-498 cells): inhibit | IC50 (HDAC1): 12.3 ± 1.64 µM

Structure (SMILES): C=CCn1c(SCCCCCC(=O)Nc2ccccc2N)nnc1-c1ccncc1 [Compound 7c, 6-((4-allyl-5-(pyridin-4-yl)-4H-1,2,4-triazol-3-yl)thio)-N-(2-aminophenyl)hexanamide]
GI% against all the tested cells [4]: 40.12–99.81% | FAK phosphorylation [5]: entirely blocked | GI% renal cancer cell lines A-498 and Caki-1 [1]: 89.34–99.81% | IC50 [1]: 0.95 to 2.35 µM | FAK phosphorylation [7]: entirely blocked

Structure (SMILES): Cn1c(SCCCCCC(=O)Nc2ccccc2N)nnc1-c1ccncc1 [Compound 7a, N-(2-aminophenyl)-6-((4-methyl-5-(pyridin-4-yl)-4H-1,2,4-triazol-3-yl)thio)hexanamide]
IC50 [1]: 6.19 to 20.9 µM

Structure (SMILES): C=CCn1c(SCc2ccc(C(=O)NO)cc2)nnc1-c1ccncc1 [Compound 10c, 4-(((4-allyl-5-(pyridin-4-yl)-4H-1,2,4-triazol-3-yl)thio)methyl)-N-hydroxybenzamide]
IC50 [1]: 6.19 to 20.9 µM

Structure (SMILES): O=C(O)CCCCCSc1nnc(-c2ccncc2)n1-c1ccccc1 [Compound 5d, 6-((4-phenyl-5-(pyridin-4-yl)-4H-1,2,4-triazol-3-yl)thio)hexanoic acid]
GI% against all the tested cells [4]: 40.12–99.81% | GI% renal cancer cell lines A-498 and Caki-1 [1]: 89.34–99.81% | IC50 [1]: 0.95 to 2.35 µM

Second part, led by results:

IC50 [1]: 6.19 to 20.9 µM
Structure (SMILES): Cn1c(SCc2ccc(C(=O)Nc3ccccc3N)cc2)nnc1-c1ccncc1 [Compound 11a, N-(2-aminophenyl)-4-(((4-methyl-5-(pyridin-4-yl)-4H-1,2,4-triazol-3-yl)thio)methyl)benzamide]

IC50 [1]: 6.19 to 20.9 µM
Structure (SMILES): Nc1ccccc1NC(=O)c1ccc(CSc2nnc(-c3ccncc3)n2-c2ccccc2)cc1 [Compound 11d, N-(2-aminophenyl)-4-(((4-phenyl-5-(pyridin-4-yl)-4H-1,2,4-triazol-3-yl)thio)methyl)benzamide]
inhibition at 10 µM (HCT116): 45.4%

IC50 (A-498 cells [2]): 3090 µM
Structure (SMILES): CCCC(CCC)C(=O)O [VPA, valproic acid, reference compound]
Akt phosphorylation [3, 8]: drastic overexpression | HDAC2 expression [3, 8]: lower ability to inhibit

IC50 [1]: 0.95 to 2.35 µM
Structure (SMILES): C=CCn1c(SCc2ccc(C(=O)Nc3ccccc3N)cc2)nnc1-c1ccncc1 [Compound 11c, 4-(((4-allyl-5-(pyridin-4-yl)-4H-1,2,4-triazol-3-yl)thio)methyl)-N-(2-aminophenyl)benzamide]
GI% against all the tested cells [4]: 40.12–99.81% | GI% renal cancer cell lines A-498 and Caki-1 [1]: 89.34–99.81%
